Reference: patent US20120321656A1, “OLIGOPEPTIDES AND THEIR USE FOR TREATING INFECTIOUS DISEASES” (priority 2011, published 2012)

Test system: BALB/c female mouse
Test: Immune response to individual peptide: mouse immunization, then indirect solid-phase immunoenzymatic assay (ELISA) of serum antibodies to peptide
Format: in vivo
Conditions: BALB/c mice, i.p. 100 μg peptide+Str-HRP with Freund's adjuvant; for Immunogenicity group: serum day 38, ELISA; for Overall ranking of antigenicity / Antigenicity compared to best ranking peptide (Average value calculated by removing outlier which exceeded 1 SD value) / Antigenicity compared to best ranking peptide (Median value): serum day 38, ELISA A450; for Antigenicity compared to best ranking peptide (Average value calculated by removing outlier which exceeded 1 SD value): average without outliers >1 SD

Substance	Immunogenicity group	Overall ranking of antigenicity	Antigenicity compared to best ranking peptide (Average value calculated by removing outlier which exceeded 1 SD value)	Antigenicity compared to best ranking peptide (Median value)
T-Y-K-W-E-T-F-L-T-R-E-M-P-A (TYKWETFLTREMPA; Mycobacterium Tuberculosis Synthetic Peptide) [SEQ ID 5, oligopeptide from MT Antigen 85 (Ag 85)]	intermediate immunogenicity	9	21.8	47.4
L-R-A-Q-D-D-Y-N-G-W-D-I (LRAQDDYNGWDI; Mycobacterium Tuberculosis Synthetic Peptide) [SEQ ID 4, oligopeptide from MT Antigen 85 (Ag 85)]	relatively strong immunogenicity	2	1.4	1.0
S-D-P-A-W-K-R-N-D-P-M-V-Q-I-P-R-L (SDPAWKRNDPMVQIPRL; Mycobacterium Tuberculosis Synthetic Peptide) [SEQ ID 6, oligopeptide from MT Antigen 85 (Ag 85)]	relatively strong immunogenicity	1	1.0	1.1
S-R-Y-N-E-L-V-E-R-G-E-A [SEQ ID 2]	intermediate immunogenicity	4	10.6	15.0
S-M-G-R-D-I-K-V-Q-F-Q-G (SMGRDIKVQFQG; Mycobacterium Tuberculosis Synthetic Peptide) [SEQ ID 3, oligopeptide from MT Antigen 85 (Ag 85)]	intermediate immunogenicity	11	26.5	35.8
N-E-L-G-A-S-Q-A-I-D-L-L-K-G-V (NELGASQAIDLLKGV; Mycobacterium Tuberculosis Synthetic Peptide) [SEQ ID 9, oligopeptide from MT Exported Repetitive Protein (Erp)]	intermediate immunogenicity	5	16.1	22.3
T-D-S-E-R-A-W-V-S-R-G-A (TDSERAWVSRGA; Mycobacterium Tuberculosis Synthetic Peptide) [SEQ ID 10, oligopeptide from MT Cytotoxin/Hemolysin]	intermediate immunogenicity	10	27.6	24.5
A-G-R-R-C-L-D-A-G (AGRRCLDAG; Mycobacterium Tuberculosis Synthetic Peptide) [SEQ ID 11, oligopeptide from MT Cytotoxin/Hemolysin]	intermediate immunogenicity	6	16.5	34.2
G-D-N-I-P-A-K-F-L-E-G-T-L-R-T (GDNIPAKFLEGTLRT; Mycobacterium Tuberculosis Synthetic Peptide) [SEQ ID 7, oligopeptide from MT Antigen 85 (Ag 85)]	intermediate immunogenicity	7	11.6	73.5
V-Y-E-S-T-E-T-T-E-R-P-E-H-H-E-F-K-Q-A (VYESTETTERPEHHEFKQA; Mycobacterium Tuberculosis Synthetic Peptide) [SEQ ID 8, oligopeptide from MT Exported Repetitive Protein (Erp)]	relatively strong immunogenicity	3	4.6	4.5
T-D-T-R-S-R-V-E-E-S-R-A-R-L [SEQ ID 1]	intermediate immunogenicity	8	44.5	38.1
